Molecular target: Sodium-dependent dopamine transporter (Rattus norvegicus, UniProt P23977)
Test: Inhibition of [3H]WIN-35428 binding to dopamine transporter in rat striatal membranes.
Assay type: cell membranes, Membrane

Sodium-dependent dopamine transporter, sequence (P23977 whole entry): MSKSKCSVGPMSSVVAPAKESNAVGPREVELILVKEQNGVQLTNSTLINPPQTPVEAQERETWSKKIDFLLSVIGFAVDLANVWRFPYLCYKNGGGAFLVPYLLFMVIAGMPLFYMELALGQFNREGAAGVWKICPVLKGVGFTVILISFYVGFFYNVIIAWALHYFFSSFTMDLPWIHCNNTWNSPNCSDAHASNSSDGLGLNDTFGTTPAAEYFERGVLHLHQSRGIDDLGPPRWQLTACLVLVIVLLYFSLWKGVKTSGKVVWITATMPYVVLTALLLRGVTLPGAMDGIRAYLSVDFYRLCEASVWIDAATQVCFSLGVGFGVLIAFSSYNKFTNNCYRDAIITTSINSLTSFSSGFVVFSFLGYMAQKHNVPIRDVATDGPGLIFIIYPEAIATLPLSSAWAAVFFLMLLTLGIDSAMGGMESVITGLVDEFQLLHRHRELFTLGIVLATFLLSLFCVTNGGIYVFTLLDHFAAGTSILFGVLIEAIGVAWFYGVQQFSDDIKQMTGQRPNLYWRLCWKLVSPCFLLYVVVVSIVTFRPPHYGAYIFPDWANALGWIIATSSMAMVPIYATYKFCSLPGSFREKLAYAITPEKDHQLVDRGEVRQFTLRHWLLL

Structure (SMILES)	IC50
CN1C2CCC1C(CO)[C@H](OC(=O)c1ccccc1)C2 (stereo not given in full)	561 nM
CN1C2CCC1C(C(=O)Oc1ccccc1)[C@H](OC(=O)c1ccccc1)C2 (stereo not given in full)	112 nM
COC(=O)[C@H]1C2CCC(C[C@@H]1OC(=O)c1ccccc1)N2 (stereo in doubt; form 1) [PSEUDOCOCAINE]	22500 nM
COC(=O)C1C2CCC(C[C@H]1OC(=O)c1ccccc1)N2Cc1ccccc1 (stereo not given in full)	668 nM
COC(=O)C1C2CCC(C[C@H]1c1ccc(N)cc1)N2C (stereo not given in full)	25 nM
CN1C2CCC1C(C(=O)OCCc1ccccc1)[C@H](OC(=O)c1ccccc1)C2 (stereo not given in full)	248 nM
COC(=O)C1C2CCC(C[C@H]1OC(=O)c1ccccc1)N2 (stereo not given in full)	303 nM
COC(=O)[C@H]1C2CCC(C[C@@H]1OC(=O)c1ccccc1)N2 (stereo in doubt; form 2) [PSEUDOCOCAINE]	15800 nM
COC(=O)C1C2CCC(C[C@H]1c1ccccc1)N2C (stereo not given in full)	23 nM
CN1C2CCC1C(C(=O)OCCc1ccc(N)cc1)[C@H](OC(=O)c1ccccc1)C2 (stereo not given in full)	72 nM

From ChEMBL document CHEMBL1126898 (J Med Chem, 1993)
